Our source for the KD values is publication PMC6849638 (2019).

What all share (assay): luminescence titration
Common to all, as to conditions: Na+ 100 mM; 20 mM Tris-HCl, pH 7.5, 298 K; apparent

For test [1], the system named is A2T2 (DNA, hairpin) GGCGAATTCAGCTTTTTGCTGAATTCGCC
For test [2], the system named is A2T3 (DNA, hairpin) GGCGAATTTCGCTTTTTGCGAAATTCGCC
Test [3] deals with A3T3 (DNA, hairpin) GGCAAATTTCAGTTTTTCTGAAATTTGCC
Test [4] deals with G2C3 (DNA, hairpin) GGCAGGCCCAGCTTTTTGCTGGGCCTGCC

In the case of `N=C(N)c1ccc(NCc2ccnc(-c3cc(CNc4ccc(C(=N)N)cc4)ccn3)c2)cc1.[Ir+3].[c-]1ccccc1-c1ccccn1.[c-]1ccccc1-c1ccccn1` [Δ-4Ir], the KD in test [1] is listed as 0.27 (0.09) μM; in test [2], 0.49 (0.03) μM; in test [3], 1.01 (0.12) μM; in test [4] it was 1.44 (0.09) μM.

Regarding `N=C(N)c1ccc(NCc2ccnc(-c3cc(CNc4ccc(C(=N)N)cc4)ccn3)c2)cc1.[Ir+3].[c-]1ccccc1-c1ccccn1.[c-]1ccccc1-c1ccccn1` [Λ-4Ir], the KD is reported as 1.15 (0.13) μM in test [1], 0.62 (0.04) μM in test [2], 0.47 (0.03) μM in test [3] and 0.70 (0.05) μM in test [4].
